Experimental data taken from the NIST ThermoML archive (doi:10.1021/je2012555).

Experiment: mn = molality of the nth substance listed, in mol/kg
Details: 101 kPa, Liquid; for mass density: Vibrating tube method

CNC(=O)[C@H](C)NC(C)=O [(S)-2-acetamido-N-methylpropanamide] + O
Details | apparent molar heat capacity [J/K/mol] | mass density [kg/m3]
298.15 K, m1 = 0.02067 | – | 997.447
298.15 K, m1 = 0.04272 | – | 997.844
298.15 K, m1 = 0.0448 | 431 | –
298.15 K, m1 = 0.0545 | 429.7 | –
298.15 K, m1 = 0.0683 | 431.5 | –
298.15 K, m1 = 0.0751 | – | 998.437
298.15 K, m1 = 0.0909 | 429.6 | –
298.15 K, m1 = 0.1031 | – | 998.944
298.15 K, m1 = 0.1226 | – | 999.278
298.15 K, m1 = 0.1376 | 427.5 | –
298.15 K, m1 = 0.1431 | – | 999.644
298.15 K, m1 = 0.1816 | – | 1000.36
303.15 K, m1 = 0.0448 | 436.8 | –
303.15 K, m1 = 0.0545 | 437.5 | –
303.15 K, m1 = 0.0683 | 437.5 | –
303.15 K, m1 = 0.0909 | 437 | –
303.15 K, m1 = 0.1376 | 434.7 | –
308.15 K, m1 = 0.0448 | 444 | –
308.15 K, m1 = 0.0545 | 444.1 | –
308.15 K, m1 = 0.0683 | 442.3 | –
308.15 K, m1 = 0.0909 | 442.9 | –
308.15 K, m1 = 0.1376 | 442.4 | –
313.15 K, m1 = 0.0448 | 448 | –
313.15 K, m1 = 0.0545 | 447.7 | –
313.15 K, m1 = 0.0683 | 450.6 | –
313.15 K, m1 = 0.0909 | 450.6 | –
313.15 K, m1 = 0.1376 | 448.4 | –
318.15 K, m1 = 0.0448 | 453.6 | –
318.15 K, m1 = 0.0545 | 453.6 | –
318.15 K, m1 = 0.0683 | 453.3 | –
318.15 K, m1 = 0.0909 | 453.9 | –
318.15 K, m1 = 0.1376 | 453.5 | –
323.15 K, m1 = 0.0448 | 457.5 | –
323.15 K, m1 = 0.0545 | 458.3 | –
323.15 K, m1 = 0.0683 | 457.3 | –
323.15 K, m1 = 0.0909 | 458.2 | –
323.15 K, m1 = 0.1376 | 458 | –
328.15 K, m1 = 0.0448 | 459.8 | –
328.15 K, m1 = 0.0545 | 462.9 | –
328.15 K, m1 = 0.0683 | 462.4 | –
328.15 K, m1 = 0.0909 | 461.2 | –
328.15 K, m1 = 0.1376 | 461.5 | –

CNC(=O)[C@H](CC(C)C)NC(C)=O [(S)-2-acetamido-N,4-dimethylpentanamide] + O
Details | apparent molar heat capacity [J/K/mol] | mass density [kg/m3]
298.15 K, m1 = 0.0463 | 681 | –
298.15 K, m1 = 0.04684 | – | 997.65
298.15 K, m1 = 0.0559 | 682.8 | –
298.15 K, m1 = 0.07 | 682.5 | –
298.15 K, m1 = 0.08312 | – | 998.122
298.15 K, m1 = 0.0936 | 680.2 | –
298.15 K, m1 = 0.09402 | – | 998.23
298.15 K, m1 = 0.1007 | – | 998.343
298.15 K, m1 = 0.108 | – | 998.407
298.15 K, m1 = 0.1129 | 680 | –
298.15 K, m1 = 0.1157 | – | 998.565
298.15 K, m1 = 0.13 | – | 998.75
298.15 K, m1 = 0.1414 | – | 998.921
298.15 K, m1 = 0.1423 | 681.9 | –
298.15 K, m1 = 0.1613 | – | 999.112
303.15 K, m1 = 0.0463 | 683.5 | –
303.15 K, m1 = 0.0559 | 684.7 | –
303.15 K, m1 = 0.07 | 684.3 | –
303.15 K, m1 = 0.0936 | 682.6 | –
303.15 K, m1 = 0.1129 | 682.2 | –
303.15 K, m1 = 0.1423 | 684.4 | –
308.15 K, m1 = 0.0463 | 687.5 | –
308.15 K, m1 = 0.0559 | 688.6 | –
308.15 K, m1 = 0.07 | 687.3 | –
308.15 K, m1 = 0.0936 | 688.3 | –
308.15 K, m1 = 0.1129 | 686.7 | –
308.15 K, m1 = 0.1423 | 687.4 | –
313.15 K, m1 = 0.0463 | 690.1 | –
313.15 K, m1 = 0.0559 | 691.3 | –
313.15 K, m1 = 0.07 | 690.9 | –
313.15 K, m1 = 0.0936 | 690.3 | –
313.15 K, m1 = 0.1129 | 689.6 | –
313.15 K, m1 = 0.1423 | 691.1 | –
318.15 K, m1 = 0.0463 | 691.6 | –
318.15 K, m1 = 0.0559 | 692.3 | –
318.15 K, m1 = 0.07 | 692.3 | –
318.15 K, m1 = 0.0936 | 691.5 | –
318.15 K, m1 = 0.1129 | 691.7 | –
318.15 K, m1 = 0.1423 | 692.4 | –
323.15 K, m1 = 0.0463 | 693.1 | –
323.15 K, m1 = 0.0559 | 694.7 | –
323.15 K, m1 = 0.07 | 694.8 | –
323.15 K, m1 = 0.0936 | 693.4 | –
323.15 K, m1 = 0.1129 | 693.6 | –
323.15 K, m1 = 0.1423 | 694.8 | –
328.15 K, m1 = 0.0463 | 695.9 | –
328.15 K, m1 = 0.0559 | 696.8 | –
328.15 K, m1 = 0.07 | 696.9 | –
328.15 K, m1 = 0.0936 | 695.8 | –
328.15 K, m1 = 0.1129 | 697.5 | –
328.15 K, m1 = 0.1423 | 696.4 | –
